Earlier results in patent US20190381003A1, “PHARMACEUTICAL COMPOSITION FOR TREATMENT OF INFLAMMATORY EAR DISEASES, METHOD FOR PRODUCING SAME AND METHOD FOR TREATMENT USING SAME COMPOSITION” (LIMITED LIABILITY COMPANY "KONSORTSIUM-PIK", priority 2017, published 2019).

Columns and labels:
[1] = following oral administration

Row | time to maximal blood level [1] | SMILES | persistence of anaesthesia (following drug administration) | analgesic effects, potency vs. lidocaine (vs. lidocaine) | analgesic effects, potency vs. procaine (vs. procaine)
1 |  | CCCNC(C)C(=O)Nc1c(C)csc1C(=O)OC (racemic) [Articaine, (RS)-Methyl 4-methyl-3-(2-propylaminopropanoylamino)thiophene-2-carboxylate] | 1 to 5 h | 2 fold | 6 fold
2 | ≤ 30 min | Cc1c(C(C)C)c(=O)n(-c2ccccc2)n1C [Propyphenazone, 1,5-Dimethyl-2-phenyl-4-propan-2-yl-pyrazol-3-one] |  |  | 
